“Also recorded” adds a separate entry of the source.
Molecular target: T1, Kv4.3/KCHIP2 (Homo sapiens, UniProt Q9UK17)
T1 sequence (Q9UK17 1-655): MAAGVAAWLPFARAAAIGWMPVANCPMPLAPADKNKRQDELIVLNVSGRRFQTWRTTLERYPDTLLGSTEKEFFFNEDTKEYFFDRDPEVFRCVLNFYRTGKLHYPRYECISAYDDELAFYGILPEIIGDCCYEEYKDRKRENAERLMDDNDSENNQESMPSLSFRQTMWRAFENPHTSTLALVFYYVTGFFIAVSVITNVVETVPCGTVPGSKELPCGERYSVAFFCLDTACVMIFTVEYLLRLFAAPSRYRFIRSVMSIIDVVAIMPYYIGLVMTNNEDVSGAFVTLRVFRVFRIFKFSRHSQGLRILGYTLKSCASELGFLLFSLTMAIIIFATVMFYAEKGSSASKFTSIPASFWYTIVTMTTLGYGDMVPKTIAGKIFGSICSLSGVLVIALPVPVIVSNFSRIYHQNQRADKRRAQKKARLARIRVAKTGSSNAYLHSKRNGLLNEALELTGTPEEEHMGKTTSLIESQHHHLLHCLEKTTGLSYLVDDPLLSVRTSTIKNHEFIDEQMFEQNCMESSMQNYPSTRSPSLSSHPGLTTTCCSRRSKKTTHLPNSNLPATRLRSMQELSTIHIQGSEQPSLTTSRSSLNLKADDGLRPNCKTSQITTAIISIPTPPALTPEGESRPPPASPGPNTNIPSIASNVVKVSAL
T1 sequence (Q9NS61 1-270 partner): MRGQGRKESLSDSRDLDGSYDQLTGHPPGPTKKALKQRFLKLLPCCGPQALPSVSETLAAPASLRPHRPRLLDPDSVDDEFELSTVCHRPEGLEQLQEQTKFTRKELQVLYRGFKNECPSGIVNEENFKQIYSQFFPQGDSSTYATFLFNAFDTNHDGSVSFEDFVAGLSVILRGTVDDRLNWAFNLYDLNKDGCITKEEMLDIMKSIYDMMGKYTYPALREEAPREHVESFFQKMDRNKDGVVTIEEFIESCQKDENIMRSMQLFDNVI
Assay: Two-electrode voltage clamp in Xenopus laevis oocytes, Kv4.3/KCHIP2
Assay type: cell-based
Conditions: BBP 10 μM, TEVC, n = 5
Experimental: cRNA was prepared from linearized plasmids using the mMESSAGE mMACHINE T7 kit (Ambion, USA) and quantified by UV spectroscopy (NanoDrop, Thermo Scientific, Wilmington, USA). Xenopus laevis oocytes were acquired from EcoCyte Bioscience (Castrop-Rauxel, Germany). Oocytes were injected with 50 nL cRNA and currents were recorded after 2 days of incubation at 19°C. Currents were recorded at a sampling rate of 10 kHz using a TEVC amplifier (Dagan CA-1B; IL, USA), and borosilicate glass recording electrodes (Module Ohm, Herlev, Denmark), made with a DMZ Universal Puller (Zeitz Instruments, Martinsried, Germany) with a resistance of 0.5–1 MΩ when filled with 2 M KCl. Oocytes were superfused with Kulori (pH 7.4) solution containing NaCl 90 mM, KCl 4 mM, MgCl2 1 mM, CaCl2 1 mM, 4-(2-hydroxyethyl)-1-piperazineethanesulfonic acid 5 mM, and currents were elicited with the voltage protocols previously indicated (Skarsfeldt et al., [2016]), from a holding potential of −80 mV. […]
To assess the effect of BBP on other calcium-activated potassium channels (hBK, hSK3 WT, rSK3 H491N, and hIK), each individual current was first normalized to its cell size using membrane's capacitance (pA/pF) before statistical analysis. […] Statistical significance between saline and the effect of both BBP and the corresponding reference compound was determined for each channel using one-way ANOVA analysis. […]

Question: `c1cc(-c2nc3ccccc3[nH]2)nc(-c2nc3ccccc3[nH]2)c1` [BBP, 2,6-Bis(2-benzimidazolyl)pyridine] was tested. Which “Effect on Kv4.3/KCHIP2 current” value did it give?
Answer: Its value is “did not have any effect; also recorded: did not significantly affect”.
